# Data taken from US20240360146A1, “BRUTON'S TYROSINE KINASE AND MUTANT DEGRADER, COMPOSITION AND APPLICATION THEREOF” (HANGZHOU HEALZEN THERAPEUTICS CO., LTD., priority 2021, published 2024).
# Target: T1, BTK (Homo sapiens, UniProt Q06187)
# T1 construct: endogenous in cells; host or cells: Mino cells
# Assay: BTK degradation activity test in Mino cells
# Assay type: cell-based
# Conditions: 16 h incubation, Western blot or Elisa
# In short: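 DC50 derived by curve fitting of BTK degradation rates versus untreated control across compound concentrations. Mino cells were exposed for 16 h; BTK levels in lysates, normalised via BCA protein, measured by Western blot or ELISA.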
# T1 sequence (Q06187 whole entry): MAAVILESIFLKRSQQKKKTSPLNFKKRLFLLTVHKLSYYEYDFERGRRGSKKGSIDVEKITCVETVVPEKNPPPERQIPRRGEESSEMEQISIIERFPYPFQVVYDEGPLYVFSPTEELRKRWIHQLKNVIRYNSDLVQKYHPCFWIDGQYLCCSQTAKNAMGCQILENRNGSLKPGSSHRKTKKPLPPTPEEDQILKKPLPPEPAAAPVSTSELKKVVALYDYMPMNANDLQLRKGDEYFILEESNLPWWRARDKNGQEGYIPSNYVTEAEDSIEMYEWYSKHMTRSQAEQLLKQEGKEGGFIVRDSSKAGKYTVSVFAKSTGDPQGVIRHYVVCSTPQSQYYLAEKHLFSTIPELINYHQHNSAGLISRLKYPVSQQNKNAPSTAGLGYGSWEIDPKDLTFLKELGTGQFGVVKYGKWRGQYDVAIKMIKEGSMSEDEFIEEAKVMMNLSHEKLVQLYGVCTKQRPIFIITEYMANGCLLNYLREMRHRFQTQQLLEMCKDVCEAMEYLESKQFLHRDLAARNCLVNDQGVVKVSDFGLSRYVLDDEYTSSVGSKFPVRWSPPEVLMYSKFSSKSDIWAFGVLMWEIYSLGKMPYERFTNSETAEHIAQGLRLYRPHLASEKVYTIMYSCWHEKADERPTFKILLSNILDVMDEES
row,Compound,DC50
1,"CN1CCN([C@@H]2CCCN(c3nnc(C(N)=O)c(Nc4ccc(N5CCN(CC6CCN(c7ccc(N8CCC(=O)NC8=O)c8c7OCO8)CC6)CC5)c(F)c4)n3)C2)C1=O [Compound 190, (R)-5-((4-(4-((1-(7-(2,4-dioxotetrahydropyrimidin-1(2H)-yl)benzo[d][1,3]dioxacyclopent-4-yl)piperidin-4-yl)methyl)piperazin-1-yl)-3-fluorophenyl)amino)-3-(3-(3-methyl-2-oxoimidazolidin-1-yl)piperidin-1-yl)-1,2,4-triazin-6-carboxamide]",< 1 nM
2,"CN1CCN([C@@H]2CCCN(c3nnc(C(N)=O)c(Nc4ccc(N5CCN(CC6CCN(c7ccc(N8CCC(=O)NC8=O)c8c7OCCO8)CC6)CC5)c(F)c4)n3)C2)C1=O [Compound 193, (R)-5-((4-(4-((1-(8-(2,4-dioxotetrahydropyrimidin-1(2H)-yl)-2,3-dihydrobenzo[b][1,4]dioxan-5-yl)piperidin-4-yl)methyl)piperazin-1-yl)-3-fluorophenyl)amino)-3-(3-(3-methyl-2-oxoimidazolidin-1-yl)piperidin-1-yl)-1,2,4-triazin-6-carboxamide]",< 1 nM
3,"CN1CCN([C@@H]2CCCN(c3nnc(C(N)=O)c(Nc4ccc(N5CCN(CC6CCN(c7ccc(N8CCC(=O)NC8=O)c(C8CC8)c7)CC6)CC5)c(F)c4)n3)C2)C1=O [Compound 194, (R)-5-((4-(4-((1-(3-cyclopropyl-4-(2,4-dioxotetrahydropyrimidin-1(2H)-yl)phenyl)piperidin-4-yl)methyl)piperazin-1-yl)-3-fluorophenyl)amino)-3-(3-(3-methyl-2-oxoimidazolidin-1-yl)piperidin-1-yl)-1,2,4-triazin-6-carboxamide]",< 1 nM
4,"CN1CCN([C@@H]2CCCN(c3nnc(C(N)=O)c(Nc4ccc(N5CCN(CC6CCN(c7ccc(N8CCC(=O)NC8=O)cc7S(C)(=O)=O)CC6)CC5)c(F)c4)n3)C2)C1=O [Compound 197, (R)-5-((4-(4-((1-(4-(2,4-dioxotetrahydropyrimidin-1(2H)-yl)-2-(methylsulfonyl)phenyl)piperidin-4-yl)methyl)piperazin-1-yl)-3-fluorophenyl)amino)-3-(3-(3-methyl-2-oxoimidazolidin-1-yl)piperidin-1-yl)-1,2,4-triazin-6-carboxamide]",< 1 nM
5,"CN1CCN([C@@H]2CCCN(c3nnc(C(N)=O)c(Nc4ccc(N5CCN(CC6CCN(c7ccc(N8CCC(=O)NC8=O)cc7P(C)(C)=O)CC6)CC5)c(F)c4)n3)C2)C1=O [Compound 198, (R)-5-((4-(4-((1-(2-(dimethylphosphoryl)-4-(2,4-dioxotetrahydropyrimidin-1(2H)-yl)phenyl)piperidin-4-yl)methyl)piperazin-1-yl)-3-fluorophenyl)amino)-3-(3-(3-methyl-2-oxoimidazolidin-1-yl)piperidin-1-yl)-1,2,4-triazin-6-carboxamide]",< 1 nM
6,"CN1CCN([C@@H]2CCCN(c3nnc(C(N)=O)c(Nc4ccc(N5CCN(CC6CCN(c7ccc(N8CCC(=O)NC8=O)c8cccnc78)CC6)CC5)c(F)c4)n3)C2)C1=O [Compound 199, (R)-5-((4-(4-((1-(5-(2,4-dioxotetrahydropyrimidin-1(2H)-yl)quinolin-8-yl)piperidin-4-yl)methyl)piperazin-1-yl)-3-fluorophenyl)amino)-3-(3-(3-methyl-2-oxoimidazolidin-1-yl)piperidin-1-yl)-1,2,4-triazin-6-carboxamide]",< 1 nM
7,"CN1CCN([C@@H]2CCCN(c3nnc(C(N)=O)c(Nc4ccc(N5CCN(CC6CCN(c7ccc(NC8CCC(=O)NC8=O)nc7)C6)CC5)c(F)c4)n3)C2)C1=O (stereo partly drawn) [Compound 200, 5-((4-(4-((1-(6-((2,6-dioxopiperidin-3-yl)amino)pyridin-3-yl)pyrrolidin-3-yl)methyl)piperazin-1-yl)-3-fluorophenyl)amino)-3-((R)-3-(3-methyl-2-oxoimidazolidin-1-yl)piperidin-1-yl)-1,2,4-triazin-6-carboxamide]",< 1 nM
8,"CN1CCN([C@@H]2CCCN(c3nnc(C(N)=O)c(Nc4ccc(N5CCN(CC6CCN(c7ccc(NC8CCC(=O)NC8=O)cn7)C6)CC5)c(F)c4)n3)C2)C1=O (stereo partly drawn) [Compound 201, 5-((4-(4-((1-(5-((2,6-dioxopiperidin-3-yl)amino)pyridin-2-yl)pyrrolidin-3-yl)methyl)piperazin-1-yl)-3-fluorophenyl)amino)-3-((R)-3-(3-methyl-2-oxoimidazolidin-1-yl)piperidin-1-yl)-1,2,4-triazin-6-carboxamide]",< 1 nM
9,"CN1CCN([C@@H]2CCCN(c3nnc(C(N)=O)c(Nc4ccc(N5CCN(CC6CCN(c7ccc(NC8CCC(=O)NC8=O)c(F)c7)C6)CC5)c(F)c4)n3)C2)C1=O (stereo partly drawn) [Compound 204, 5-((4-(4-((1-(4-((2,6-dioxopiperidin-3-yl)amino)-3-fluorophenyl)pyrrolidin-3-yl)methyl)piperazin-1-yl)-3-fluorophenyl)amino)-3-((R)-3-(3-methyl-2-oxoimidazolidin-1-yl)piperidin-1-yl)-1,2,4-triazin-6-carboxamide]",< 1 nM

# Next, values leading:
row,DC50,Compound
1,< 1 nM,"Cc1cc(N2CCC(CN3CCN(c4ccc(Nc5nc(N6CCC[C@@H](N7CCN(C)C7=O)C6)nnc5C(N)=O)cc4F)CC3)C2)ccc1NC1CCC(=O)NC1=O (stereo partly drawn) [Compound 206, 5-((4-(4-((1-(4-((2,6-dioxopiperidin-3-yl)amino)-3-methylphenyl)pyrrolidin-3-yl)methyl)piperazin-1-yl)-3-fluorophenyl)amino)-3-((R)-3-(3-methyl-2-oxoimidazolidin-1-yl)piperidin-1-yl)-1,2,4-triazin-6-carboxamide]"
2,< 1 nM,"CN1CCN([C@@H]2CCCN(c3nnc(C(N)=O)c(Nc4ccc(N5CCN(CC6CCN(c7ccc(NC8CCC(=O)NC8=O)c8c7OCO8)C6)CC5)c(F)c4)n3)C2)C1=O (stereo partly drawn) [Compound 208, 5-((4-(4-((1-(7-((2,6-dioxopiperidin-3-yl)amino)benzo[d][1,3]dioxacyclopent-4-yl)pyrrolidin-3-yl)methyl)piperazin-1-yl)-3-fluorophenyl)amino)-3-((R)-3-(3-methyl-2-oxoimidazolidin-1-yl)piperidin-1-yl)-1,2,4-triazin-6-carboxamide]"
3,< 1 nM,"CN1CCN([C@@H]2CCCN(c3nnc(C(N)=O)c(Nc4ccc(N5CCN(CC6CCN(c7ccc(NC8CCC(=O)NC8=O)c8c7OCCO8)CC6)CC5)c(F)c4)n3)C2)C1=O (stereo partly drawn) [Compound 211, 5-((4-(4-((1-(8-((2,6-dioxopiperidin-3-yl)amino)-2,3-dihydrobenzo[b][1,4]dioxan-5-yl)piperidin-4-yl)methyl)piperazin-1-yl)-3-fluorophenyl)amino)-3-((R)-3-(3-methyl-2-oxoimidazolidin-1-yl)piperidin-1-yl)-1,2,4-triazin-6-carboxamide]"
4,< 1 nM,"CN1CCN([C@@H]2CCCN(c3nnc(C(N)=O)c(Nc4ccc(N5CCN(CC6CCN(c7ccc8c(C9CCC(=O)NC9=O)nn(C)c8c7)C6)CC5)c(F)c4)n3)C2)C1=O (stereo partly drawn) [Compound 212, 5-((4-(4-((1-(3-(2,6-dioxopiperidin-3-yl)-1-methyl-1H-indazol-6-yl)pyrrolidin-3-yl)methyl)piperazin-1-yl)-3-fluorophenyl)amino)-3-((R)-3-(3-methyl-2-oxoimidazolidin-1-yl)piperidin-1-yl)-1,2,4-triazin-6-carboxamide]"
5,< 1 nM,"CN1CCN([C@@H]2CCCN(c3nnc(C(N)=O)c(Nc4ccc(N5CCN(CC6CCN(c7ccc8c(C9CCC(=O)NC9=O)nn(C)c8n7)C6)CC5)c(F)c4)n3)C2)C1=O (stereo partly drawn) [Compound 214, 5-((4-(4-((1-(3-(2,6-dioxopiperidin-3-yl)-1-methyl-H-pyrazolo[3,4-b]pyridin-6-yl)pyrrolidin-3-yl)methyl)piperazin-1-yl)-3-fluorophenyl)amino)-3-((R)-3-(3-methyl-2-oxoimidazolidin-1-yl)piperidin-1-yl)-1,2,4-triazin-6-carboxamide]"
6,< 1 nM,"CN1CCN([C@@H]2CCCN(c3nnc(C(N)=O)c(Nc4ccc(N5CCN(CC6CCN(c7ccc8c(C9CCC(=O)NC9=O)nn(C)c8n7)CC6)CC5)c(F)c4)n3)C2)C1=O (stereo partly drawn) [Compound 215, 5-((4-(4-((1-(3-(2,6-dioxopiperidin-3-yl)-1-methyl-1H-pyrazolyl[3,4-b]pyridin-6-yl)piperidin-4-yl)methyl)piperazin-1-yl)-3-fluorophenyl)amino)-3-((R)-3-(3-methyl-2-oxoimidazolidin-1-yl)piperidin-1-yl)-1,2,4-triazin-6-carboxamide]"
7,< 1 nM,"CN1CCN([C@@H]2CCCN(c3nnc(C(N)=O)c(Nc4ccc(N5CCN(CC6CCN(c7cccc8c(C9CCC(=O)NC9=O)nn(C)c78)C6)CC5)c(F)c4)n3)C2)C1=O (stereo partly drawn) [Compound 216, 5-((4-(4-((1-(3-(2,6-dioxopiperidin-3-yl)-1-methyl-1H-indazol-7-yl)pyrrolidin-3-yl)methyl)piperazin-1-yl)-3-fluorophenyl)amino)-3-((R)-3-(3-methyl-2-oxoimidazolidin-1-yl)piperidin-1-yl)-1,2,4-triazin-6-carboxamide]"
8,< 1 nM,"CN1CCN([C@@H]2CCCN(c3nnc(C(N)=O)c(Nc4ccc(N5CCN(CC6CCN(c7cccc8c(C9CCC(=O)NC9=O)nn(C)c78)CC6)CC5)c(F)c4)n3)C2)C1=O (stereo partly drawn) [Compound 217, 5-((4-(4-((1-(3-(2,6-dioxopiperidin-3-yl)-1-methyl-H-indazol-7-yl)piperidin-4-yl)methyl)piperazin-1-yl)-3-fluorophenyl)amino)-3-((R)-3-(3-methyl-2-oxoimidazolidin-1-yl)piperidin-1-yl)-1,2,4-triazin-6-carboxamide]"
9,< 1 nM,"CN1CCN([C@@H]2CCCN(c3nnc(C(N)=O)c(Nc4ccc(N5CCN(CC6CCN(c7ccc8c9c([nH]c8c7)C(=O)N(C7CCC(=O)NC7=O)C9)C6)CC5)c(F)c4)n3)C2)C1=O (stereo partly drawn) [Compound 220, 5-((4-(4-((1-(2-(2,6-dioxopiperidin-3-yl)-3-oxo-1,2,3,4-tetrahydropyrrolo[3,4-b]indol-6-yl)pyrrolidin-3-yl)methyl)piperazin-1-yl)-3-fluorophenyl)amino)-3-((R)-3-(3-methyl-2-oxoimidazolidin-1-yl)piperidin-1-yl)-1,2,4-triazin-6-carboxamide]"
